Results published in patent US12410156B2, “Kinase inhibitors” (Insilico Medicine IP Limited, priority 2019, dated 2025).

What was measured:
[1] = target: T1, TNIK (Homo sapiens, UniProt Q9UKE5); experiment: TNIK enzymatic assay (radiometric 33P-ATP filter assay); type: biochemical; conditions: second table (TNIK, MAP4K4, Collagen Production Data); read-out: TNIK_IC50
T1 construct: purchased Eurofins (Kinase Profiler service protocol)
Procedure: The compounds were studied for function as TNIK inhibitors to generate the data of Table 1. […] (specific activity and concentration as required). The reaction is initiated by the addition of the Mg/ATP mix. After incubation for 40 minutes at room temperature, the reaction is stopped by the addition of phosphoric acid to a concentration of 0.5%.

[2] = target: MAP4K4 (h) (Homo sapiens, UniProt O95819); experiment: MAP4K4 kinase assay (radiometric 33P-ATP filter assay); type: biochemical; conditions: read-out: MAP4K4_IC50
Procedure: (specific activity and concentration as required). The reaction is initiated by the addition of the Mg/ATP mix. After incubation for 40 minutes at room temperature, the reaction is stopped by the addition of phosphoric acid to a concentration of 0.5%.

[3] = system: Human hepatic stellate cell LX-2; experiment: LX-2 fibrosis assay, collagen production (Western blot); type: cell-based; conditions: LX-2 cells, stimulated with 4 ng/mL TGF-b for 48 hours
Procedure: Human hepatic stellate cell LX-2 were grown in DMEM (Invitrogen, 11960) supplied with 1% MEM Non-Essential Amino Acids (Invitrogen, 11140-050), 2% fetal bovine serum (Hyclone, SV30087.03), Penicillin (100 U/mL)-streptomycin (100 μg/mL) (Millipore, TMS-AB2-C) and 2 mM L-Glutamine (Invitrogen, 25030-001). After the cells grew in 12-well plates for 24 hours, the cell culture medium was changed to the same as above except using 0.4% fetal bovine serum. After 20 hour growth in the reduced serum medium, the cells were treated with indicated doses of compounds for 30 minutes. Subsequently, the cells were stimulated with 4 ng/mL TGF-b (R&D Systems, 240-B-002) for 48 hours. The cells were rinsed twice with DPBS before being harvested with 100 μL RIPA buffer (Sigma, R0278) supplemented with protease inhibitor cocktail (Roche, 04693132001) at 4° C. The total protein in each sample was quantified using BCA Protein Assay Kit (Pierce™, 23227) and equal amount of total protein of each sample was subject to Western blot analysis. Antibodies used were mouse anti-α-Actin (SPM332) ([…]), mouse anti-CTGF (E5) (sc-365970), and mouse anti-collagen α1 (3G3) (sc-293182), from Santa Cruz Biotechnologies; and mouse anti-GAPDH (6C5) (EMD Millipore, MAB374).

MAP4K4 (h), sequence (O95819 whole entry): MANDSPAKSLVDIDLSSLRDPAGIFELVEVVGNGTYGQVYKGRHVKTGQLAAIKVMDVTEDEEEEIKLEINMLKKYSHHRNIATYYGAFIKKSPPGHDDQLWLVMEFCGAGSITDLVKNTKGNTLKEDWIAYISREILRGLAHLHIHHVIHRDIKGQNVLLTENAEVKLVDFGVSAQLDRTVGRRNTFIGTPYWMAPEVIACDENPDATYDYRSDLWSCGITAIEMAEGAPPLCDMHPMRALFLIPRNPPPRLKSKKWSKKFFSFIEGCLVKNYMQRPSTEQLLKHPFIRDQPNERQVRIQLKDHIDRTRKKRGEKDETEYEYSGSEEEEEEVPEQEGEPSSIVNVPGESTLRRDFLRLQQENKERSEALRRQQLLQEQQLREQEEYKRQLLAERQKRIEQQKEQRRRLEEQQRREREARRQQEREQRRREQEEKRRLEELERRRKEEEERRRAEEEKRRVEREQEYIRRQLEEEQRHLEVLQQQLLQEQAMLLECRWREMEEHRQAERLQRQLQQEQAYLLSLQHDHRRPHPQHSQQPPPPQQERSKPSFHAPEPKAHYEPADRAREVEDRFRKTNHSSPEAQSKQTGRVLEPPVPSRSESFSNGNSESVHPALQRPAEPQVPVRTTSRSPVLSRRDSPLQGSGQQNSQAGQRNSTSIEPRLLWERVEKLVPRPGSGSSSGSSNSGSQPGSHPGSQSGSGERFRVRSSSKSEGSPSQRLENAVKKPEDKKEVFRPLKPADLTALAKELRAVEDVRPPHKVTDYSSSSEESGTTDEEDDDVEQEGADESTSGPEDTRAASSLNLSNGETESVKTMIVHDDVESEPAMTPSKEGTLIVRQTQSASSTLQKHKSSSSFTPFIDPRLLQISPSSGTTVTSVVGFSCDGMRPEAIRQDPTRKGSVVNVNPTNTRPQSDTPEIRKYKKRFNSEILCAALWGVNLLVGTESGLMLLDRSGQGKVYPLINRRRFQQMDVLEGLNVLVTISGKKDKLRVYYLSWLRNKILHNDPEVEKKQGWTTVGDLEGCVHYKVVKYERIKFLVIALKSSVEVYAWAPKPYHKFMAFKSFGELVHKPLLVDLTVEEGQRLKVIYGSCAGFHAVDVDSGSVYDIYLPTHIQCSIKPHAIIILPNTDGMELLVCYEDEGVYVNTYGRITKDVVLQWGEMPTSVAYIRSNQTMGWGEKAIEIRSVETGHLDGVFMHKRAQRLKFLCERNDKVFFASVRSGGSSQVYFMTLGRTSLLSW
T1 sequence (Q9UKE5 whole entry): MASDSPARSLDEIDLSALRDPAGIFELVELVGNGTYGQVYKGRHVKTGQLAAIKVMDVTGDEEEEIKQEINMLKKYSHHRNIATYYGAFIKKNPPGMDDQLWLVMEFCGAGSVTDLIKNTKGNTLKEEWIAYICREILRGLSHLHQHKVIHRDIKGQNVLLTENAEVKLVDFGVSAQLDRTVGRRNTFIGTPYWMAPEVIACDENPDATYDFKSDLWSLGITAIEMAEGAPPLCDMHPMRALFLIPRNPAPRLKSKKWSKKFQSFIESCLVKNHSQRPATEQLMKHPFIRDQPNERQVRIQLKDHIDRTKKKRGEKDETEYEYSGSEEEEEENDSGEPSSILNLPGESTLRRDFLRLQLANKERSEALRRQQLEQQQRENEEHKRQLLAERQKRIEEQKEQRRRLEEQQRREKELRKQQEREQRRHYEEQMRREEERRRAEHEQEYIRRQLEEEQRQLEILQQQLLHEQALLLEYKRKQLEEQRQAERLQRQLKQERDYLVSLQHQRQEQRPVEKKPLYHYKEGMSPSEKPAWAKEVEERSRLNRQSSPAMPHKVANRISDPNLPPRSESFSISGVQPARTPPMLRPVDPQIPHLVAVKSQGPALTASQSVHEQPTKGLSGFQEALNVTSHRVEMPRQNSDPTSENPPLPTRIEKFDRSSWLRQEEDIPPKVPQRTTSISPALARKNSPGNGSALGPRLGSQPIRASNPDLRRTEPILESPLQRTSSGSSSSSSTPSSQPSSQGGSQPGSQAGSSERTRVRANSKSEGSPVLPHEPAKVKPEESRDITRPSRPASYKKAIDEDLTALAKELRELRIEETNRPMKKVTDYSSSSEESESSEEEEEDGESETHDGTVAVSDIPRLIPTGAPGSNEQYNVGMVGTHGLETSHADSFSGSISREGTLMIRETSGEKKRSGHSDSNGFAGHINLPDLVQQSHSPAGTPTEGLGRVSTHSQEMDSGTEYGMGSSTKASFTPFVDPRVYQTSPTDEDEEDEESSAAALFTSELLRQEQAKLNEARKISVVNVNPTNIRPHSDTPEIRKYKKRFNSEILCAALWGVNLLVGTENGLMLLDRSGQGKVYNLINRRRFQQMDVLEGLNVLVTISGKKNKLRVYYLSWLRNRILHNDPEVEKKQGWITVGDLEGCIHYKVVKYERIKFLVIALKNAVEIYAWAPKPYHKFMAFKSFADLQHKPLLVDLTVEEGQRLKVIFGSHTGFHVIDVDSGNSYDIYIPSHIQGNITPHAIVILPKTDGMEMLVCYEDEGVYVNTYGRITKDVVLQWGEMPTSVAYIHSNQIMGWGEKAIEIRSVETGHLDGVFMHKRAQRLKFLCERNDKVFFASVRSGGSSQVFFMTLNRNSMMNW

Row | IC50 [1] [nM] | IC50 [2] [nM] | EC50 ([3]; LX-2, 48 h) [µM] | SMILES | EC50 [3] [µM]
1 | 60.7 | 36.6 | 0.983 | O=C(Nc1ccncc1F)c1ccc(-c2c(-c3ccc(F)cc3)ncn2[C@@H]2COC[C@H]2F)o1 (racemic) [Compound A-54, rac-5-(4-(4-fluorophenyl)-1-((3R,4S)-4-fluorotetrahydrofuran-3-yl)-1H-imidazol-5-yl)-N-(3-fluoropyridin-4-yl)furan-2-carboxamide] | 
2 |  |  |  | CN1CCN(c2ccc(NC(=O)c3ccc(-c4c(-c5ccc(F)cc5)ncn4C4CCCC4)o3)c(F)c2)CC1 [Compound A-52, 4-(4-(5-(1-cyclopentyl-4-(4-fluorophenyl)-1H-imidazol-5-yl)furan-2-carboxamido)-3-fluorophenyl)-1-methylpiperazin-1-ium] | 0.042
3 |  |  | 1.98 | O=C(Nc1ccncc1F)c1ccc(-c2c(-c3ccc(F)cc3)ncn2C2COCC2F)o1 (centres unmarked) [Compound A-53, 5-(4-(4-fluorophenyl)-1-(4-fluorotetrahydrofuran-3-yl)-1H-imidazol-5-yl)-N-(3-fluoropyridin-4-yl)furan-2-carboxamide] | 
